Measured values: patent US4868299A, “Antibacterially active pyrido-benzothiazine derivatives with long-term action” (Mediolanum Farmaceutici Srl, priority 1986, dated 1989)
In brackets after ≈: the same amount, converted by molar mass. Where two headings read alike, the source gives them in different places.

How the values were obtained:
[1] = urine concentrations after oral administration to the rat (HPLC); format: in vivo; details: 50 mg/kg oral; for Cumulative excretion (urine) / Volume excreted (urine): pool of 6 rats
Description: (§1) The compound (X) was administered orally at a dose of 50 mg/kg to the rat after which the plasma, tissue and urine concentrations were evaluated by the HPLC method, as described hereinafter.
The urine was collected at various times during the 24 hours following administration. The results relative to urine concentrations are summarised in Table 2, and refer to a urine pool obtained form 6 female rates having a weight of about 100 g.
(§2) The HPLC determination was made by the following procedure: 2 mg of N-dimethyldiarepam (internal standard), 1 ml of citrate buffer (0.1 M, pH 6.2) and 6 ml of chloroform are added to 1 ml of plasma or to 1 ml of supernatant obtained after centrifuging a homogenized tissue in 3 volumes of physiological solution at 2000 r.p.m. for 5 minutes.
(§3) After agitating for 20 minutes and centrifuging at 3000 r.p.m. for 5 minutes, the organic phase is separated and dried over a water bath at 70° C.
(§4) The residue is collected in 50 μl of methanol, and 20 μl of the solution are injected into a HPLC (Gilson) column under the following conditions: column μ Bondopak C-18 ([…], wavelength 245 nm), flow: 0.7 ml/min, mobile phase: (A) 0.1% acetic acid and (B) methanol, gradient: […]

Staphylococcus 29 = assay: in-vitro antibacterial activity, MIC by agar dilution (multipoint inoculator); format: cell-based; details: Staphylococcus 29; 18 hours at 37° C; read-out: Minimum Inhibiting Concentration (MIC)
Description: (§5) The antibacterial activity of the compounds according to the invention was determined "in vitro" on pathogenic strains of recent clinical isolation by testing agar dilutions using a multipoint inoculator (Denley Techn. Ltd., England).
(§6) The culture medium used is isosensitest agar (Oxoid), in a quantity of 20 ml in a Petri capsule. The compounds to be tested were dissolved at various dilutions and incorporated in agar.
(§7) The bacterial inoculum, originating from an overnight broth and containing 10^5 colony-forming units per point, was inoculated by a multipoint inoculator. The bacterial growth was evaluated after 18 hours of incubation at 37° C.
(§8) For comparison purposes, the results relative to compound (XIII) and to nalidixic acid are also reported.

Proteus 25 = assay: as above; format: cell-based; details: Proteus 25; 18 hours at 37° C; read-out: Minimum Inhibiting Concentration (MIC)
Description: as §5, §6, §7, §8

Enterobacter 041 = assay: as above; format: cell-based; details: Enterobacter 041; 18 hours at 37° C; read-out: Minimum Inhibiting Concentration (MIC)
Description: as §5, §6, §7, §8

Pseudomonas 22437 = assay: as above; format: cell-based; details: 18 hours at 37° C, read-out: Minimum Inhibiting Concentration (MIC)
Description: as §5, §6, §7, §8

Pseudomonas 19 = assay: as above; format: cell-based; details: Pseudomonas 19; 18 hours at 37° C; read-out: Minimum Inhibiting Concentration (MIC)
Description: as §5, §6, §7, §8

Escherichia 963 = assay: as above; format: cell-based; details: Escherichia 963; 18 hours at 37° C; read-out: Minimum Inhibiting Concentration (MIC)
Description: as §5, §6, §7, §8

Citrobacter 118 = assay: as above; format: cell-based; details: Citrobacter 118; 18 hours at 37° C; read-out: Minimum Inhibiting Concentration (MIC)
Description: as §5, §6, §7, §8

Serratia 10 = assay: as above; format: cell-based; details: 18 hours at 37° C, read-out: Minimum Inhibiting Concentration (MIC)
Description: as §5, §6, §7, §8

Proteus 966 = assay: as above; format: cell-based; details: Proteus 966; 18 hours at 37° C; read-out: Minimum Inhibiting Concentration (MIC)
Description: as §5, §6, §7, §8

Enterobacter 2653 = assay: as above; format: cell-based; details: Enterobacter 2653; 18 hours at 37° C; read-out: Minimum Inhibiting Concentration (MIC)
Description: as §5, §6, §7, §8

Citrobacter 120 = assay: as above; format: cell-based; details: Citrobacter 120; 18 hours at 37° C; read-out: Minimum Inhibiting Concentration (MIC)
Description: as §5, §6, §7, §8

Klebsiella 4 = assay: as above; format: cell-based; details: Klebsiella 4; 18 hours at 37° C; read-out: Minimum Inhibiting Concentration (MIC)
Description: as §5, §6, §7, §8

Escherichia 15 = assay: as above; format: cell-based; details: 18 hours at 37° C, read-out: Minimum Inhibiting Concentration (MIC)
Description: as §5, §6, §7, §8

Staphylococcus 7 = assay: as above; format: cell-based; details: Staphylococcus 7; 18 hours at 37° C; read-out: Minimum Inhibiting Concentration (MIC)
Description: as §5, §6, §7, §8

Serratia 9 = assay: as above; format: cell-based; details: Serratia 9; 18 hours at 37° C; read-out: Minimum Inhibiting Concentration (MIC)
Description: as §5, §6, §7, §8

[2] = plasma and tissue concentrations after oral administration to the rat (HPLC); format: in vivo; details: rat, 50 mg/kg oral; for concentration at 0.5 h: 0.5 hours after treatment; for concentration at 4 h: 4 hours after treatment; for concentration at 15 h: 15 hours after treatment
Description: as §1
The plasma and tissues (heart, kidney and liver) were withdrawn from groups of 3 female rats at various times after oral administration.
as §2, §3, §4

[3] = heart, read-out: Heart concentration
[4] = kidney, read-out: Kidney concentration
[5] = liver, read-out: Liver concentration
[6] = plasma, read-out: Plasma concentration

## CC1Cn2cc(C(=O)O)c(=O)c3cc(F)c(N4CCN(C)CC4)c(c32)S1 (stereo not drawn) [(X), 9-fluoro-10[N(N'-methyl)piperazinyl]-2-methyl-7-oxo-2,3-dihydro-7H-pyrido[1,2,3-de][1,4]benzothiazine-6-carboxylic acid]
[1]
  urine concentrations, in words: lasting and high
[1]; 0-1 hours after treatment
  Cumulative excretion (urine): 0.50 mg
  Volume excreted (urine): 5.5 mL
[1]; 1-2 hours after treatment
  Cumulative excretion (urine): 1.33 mg
  Volume excreted (urine): 3.2 mL
[1]; 2-4 hours after treatment
  Cumulative excretion (urine): 2.05 mg
  Volume excreted (urine): 7.2 mL
[1]; 4-8 hours after treatment
  Cumulative excretion (urine): 3.13 mg
  Volume excreted (urine): 6.0 mL
[1]; 8-24 hours after treatment
  Cumulative excretion (urine): 8.17 mg
  Volume excreted (urine): 28.0 mL
[1]; urine, 0-1 hours after treatment
  concentration at 1 h: 90 µg/mL
[1]; urine, 1-2 hours after treatment
  concentration at 2 h: 260 µg/mL
[1]; urine, 2-4 hours after treatment
  concentration at 4 h: 100 µg/mL
[1]; urine, 4-8 hours after treatment
  concentration at 8 h: 180 µg/mL
[1]; urine, 8-24 hours after treatment
  concentration at 24 h: 180 µg/mL
[1]; urine, within 24 hours, of the orally administered dose, read-out: percentage urine excretion of the non-metabolized product
  dose excreted at 24 h: ~27%
Staphylococcus 29
  MIC: 2 µg/mL (≈ 5.3 µM)
Proteus 25
  MIC: 8 µg/mL (≈ 21.2 µM)
Enterobacter 041
  MIC: 0.25 µg/mL (≈ 0.662 µM)
Pseudomonas 22437
  MIC: 16 µg/mL (≈ 42.4 µM)
Pseudomonas 19
  MIC: 16 µg/mL (≈ 42.4 µM)
Escherichia 963
  MIC: 2 µg/mL (≈ 5.3 µM)
Citrobacter 118
  MIC: 0.5 µg/mL (≈ 1.32 µM)
Serratia 10
  MIC: 2 µg/mL (≈ 5.3 µM)
Proteus 966
  MIC: 8 µg/mL (≈ 21.2 µM)
Enterobacter 2653
  MIC: 0.5 µg/mL (≈ 1.32 µM)
Citrobacter 120
  MIC: 0.25 µg/mL (≈ 0.662 µM)
Klebsiella 4
  MIC: 0.25 µg/mL (≈ 0.662 µM)
Escherichia 15
  MIC: 0.25 µg/mL (≈ 0.662 µM)
Staphylococcus 7
  MIC: 2 µg/mL (≈ 5.3 µM)
Serratia 9
  MIC: 8 µg/mL (≈ 21.2 µM)
[2]
  absorption after oral administration, in words: rapidly absorbed after oral administration to induce high tissue levels
  heart, kidney and liver concentrations relative to plasma, in words: always greater than those observed in the plasma
  tissue bioavailability, in words: excellent tissue bioavailability
[2]; 15 hours after administration
  concentrations relative to the MIC values, in words: high concentrations relative to the MIC values are still present
[2]; [3]
  concentration at 0.5 h: 19200 ng/g
  concentration at 4 h: 18600 ng/g
  concentration at 15 h: 4630 ng/g
[2]; [4]
  concentration at 0.5 h: 34400 ng/g
  concentration at 4 h: 38700 ng/g
  concentration at 15 h: 5900 ng/g
[2]; [5]
  concentration at 0.5 h: 62900 ng/g
  concentration at 4 h: 34300 ng/g
  concentration at 15 h: 9370 ng/g
[2]; [6]
  concentration at 0.5 h: 10.2 µg/mL
  concentration at 4 h: 8.1 µg/mL
  concentration at 15 h: 3.5 µg/mL
